19 compounds from patent US9718813B2, “Imidazolin-5-one derivative useful as FASN inhibitors for the treatment of cancer” (Janssen Pharmaceutica, NV, priority 2013, dated 2017) can be followed below.

Chain of hFASN enzyme (full length) (P49327 whole entry, the tested form may be a part): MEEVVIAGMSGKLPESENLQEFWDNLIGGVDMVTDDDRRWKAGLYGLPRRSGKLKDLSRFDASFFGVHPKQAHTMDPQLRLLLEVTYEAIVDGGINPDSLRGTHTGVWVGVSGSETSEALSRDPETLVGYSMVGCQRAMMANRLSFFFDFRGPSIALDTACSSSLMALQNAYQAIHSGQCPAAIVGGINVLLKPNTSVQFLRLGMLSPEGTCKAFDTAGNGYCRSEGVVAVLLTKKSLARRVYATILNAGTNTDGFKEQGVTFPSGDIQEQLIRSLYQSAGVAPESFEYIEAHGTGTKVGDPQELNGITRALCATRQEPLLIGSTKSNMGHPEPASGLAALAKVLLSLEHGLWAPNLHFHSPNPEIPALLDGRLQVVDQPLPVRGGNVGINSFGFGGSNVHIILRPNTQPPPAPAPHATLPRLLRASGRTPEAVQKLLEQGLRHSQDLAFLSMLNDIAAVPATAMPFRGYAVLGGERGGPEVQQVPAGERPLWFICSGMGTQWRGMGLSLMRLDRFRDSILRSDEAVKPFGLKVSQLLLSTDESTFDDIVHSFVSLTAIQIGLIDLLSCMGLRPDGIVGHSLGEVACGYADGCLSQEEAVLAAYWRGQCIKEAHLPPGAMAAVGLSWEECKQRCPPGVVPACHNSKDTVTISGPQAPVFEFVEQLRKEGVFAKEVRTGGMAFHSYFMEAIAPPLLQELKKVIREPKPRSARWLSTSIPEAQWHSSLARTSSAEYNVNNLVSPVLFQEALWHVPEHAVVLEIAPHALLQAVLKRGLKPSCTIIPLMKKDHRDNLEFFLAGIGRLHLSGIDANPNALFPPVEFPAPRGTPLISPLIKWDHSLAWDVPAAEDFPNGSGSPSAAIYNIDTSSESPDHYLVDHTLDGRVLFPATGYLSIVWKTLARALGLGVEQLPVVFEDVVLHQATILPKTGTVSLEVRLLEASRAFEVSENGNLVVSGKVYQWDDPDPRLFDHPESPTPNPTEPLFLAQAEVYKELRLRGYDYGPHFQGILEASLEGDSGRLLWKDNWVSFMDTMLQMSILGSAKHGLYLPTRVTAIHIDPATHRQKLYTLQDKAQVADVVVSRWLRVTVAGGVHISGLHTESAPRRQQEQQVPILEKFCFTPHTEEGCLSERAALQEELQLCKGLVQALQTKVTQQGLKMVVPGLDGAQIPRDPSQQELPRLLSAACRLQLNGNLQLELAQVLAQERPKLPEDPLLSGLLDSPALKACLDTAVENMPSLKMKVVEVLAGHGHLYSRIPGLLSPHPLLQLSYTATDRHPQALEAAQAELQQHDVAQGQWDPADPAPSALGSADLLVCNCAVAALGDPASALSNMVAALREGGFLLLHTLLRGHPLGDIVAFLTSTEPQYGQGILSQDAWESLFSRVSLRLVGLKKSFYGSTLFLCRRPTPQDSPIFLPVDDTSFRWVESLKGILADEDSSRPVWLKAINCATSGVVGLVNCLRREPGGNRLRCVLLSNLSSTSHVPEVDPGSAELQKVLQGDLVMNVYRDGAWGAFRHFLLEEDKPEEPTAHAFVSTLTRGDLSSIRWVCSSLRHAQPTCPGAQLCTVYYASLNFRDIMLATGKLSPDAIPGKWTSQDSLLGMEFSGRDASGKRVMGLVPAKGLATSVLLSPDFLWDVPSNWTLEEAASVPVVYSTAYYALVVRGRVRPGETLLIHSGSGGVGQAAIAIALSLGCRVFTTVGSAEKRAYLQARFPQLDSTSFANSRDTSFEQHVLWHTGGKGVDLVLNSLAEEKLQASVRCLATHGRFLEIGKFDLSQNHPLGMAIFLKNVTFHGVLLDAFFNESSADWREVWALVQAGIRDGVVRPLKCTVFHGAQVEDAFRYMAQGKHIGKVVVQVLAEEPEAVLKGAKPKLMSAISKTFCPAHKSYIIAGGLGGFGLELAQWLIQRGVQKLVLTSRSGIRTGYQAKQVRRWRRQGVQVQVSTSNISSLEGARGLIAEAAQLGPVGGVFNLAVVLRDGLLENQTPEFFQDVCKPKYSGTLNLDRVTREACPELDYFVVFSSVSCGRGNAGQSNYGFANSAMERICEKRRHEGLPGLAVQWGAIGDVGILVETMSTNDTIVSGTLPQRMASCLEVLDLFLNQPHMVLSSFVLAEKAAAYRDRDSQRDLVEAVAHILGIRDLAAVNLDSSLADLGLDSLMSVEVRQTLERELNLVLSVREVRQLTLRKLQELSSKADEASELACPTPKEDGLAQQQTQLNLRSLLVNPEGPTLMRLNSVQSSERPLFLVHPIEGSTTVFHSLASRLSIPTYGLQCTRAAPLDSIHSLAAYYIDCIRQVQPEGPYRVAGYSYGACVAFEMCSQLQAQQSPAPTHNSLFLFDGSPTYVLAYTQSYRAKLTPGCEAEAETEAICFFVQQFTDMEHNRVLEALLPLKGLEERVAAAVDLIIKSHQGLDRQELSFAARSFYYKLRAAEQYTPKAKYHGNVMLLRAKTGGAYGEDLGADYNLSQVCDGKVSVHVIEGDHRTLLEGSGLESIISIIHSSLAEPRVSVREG

The assay has as its target hFASN enzyme (full length) (Homo sapiens (Human), UniProt P49327). In words: Fatty Acid Synthase (FASN) Inhibition Scintillation Proximity Assay. The assay is classed as biochemical. The following applies: 3H-acetyl-CoA and malonyl-CoA substrates, SPA, mean if tested more than once. How it is done: In this assay, inhibition of FASN activity is measured using ^3H-acetyl-CoA and malonyl-CoA as substrates. ^3H-Acetyl CoA is converted to ^3H-palmitate through a series of reactions by the FASN protein, which contains 7 functional domains and carries out 7 enzymatic reactions to ultimately produce ^3H-palmitate. The assay principle is based upon the fact that ^3H-acetyl-CoA is hydrophilic and the end product, ^3H-palmitate is hydrophobic.
10 μL assay buffer (100 mM KH2PO4 pH 7.5, 1 mM DTT) (20 μL in blanks) was added to a 384-well white Opti Plate plate (Perkin Elmer). 0.9 μL test compound (at concentrations of 30 μM, 10 μM, 3 μM, 1 μM, 0.30 μM, 0.10 μM, 0.03 μM and 0.01 μM)/DMSO and 10 μL hFASN enzyme (full length, 300 ng, purified in house) or 10 μL assay buffer was added to the wells. […] The reaction was stopped by adding 20 μL Streptavidin coupled imaging beads (25 mg/ml). After incubation for 30 minutes at room temperature in the dark, the 384 well plate was centrifuged at 1500 rpm for 3 minutes and was measured after at least 24 hrs by the LEADseeker™, measuring emission using a 610±20 nm pass filter.
Raw data generated by the instrument were normalized to % Controlmin values, which were calculated as: % Controlmin=100*(x−mLC)/(mHC−mLC)
where mLC and mHC were the means of the low control wells and high control wells on the plate, after manual exclusion of outliers. A plot of Controlmin versus test compound concentration was fitted to a 4-parameter logistic curve using a non-linear least squares regression method.
(In general: In a scintillation proximity assay essentially only radioactivity close to the scintillant gives light.)
`CC1(C)N=C(c2ccc(-c3nc4ccccc4o3)cc2)N(CC2CN(C(=O)C3CC3)C2)C1=O` [Compound 12, 2-(4-(benzo[d]oxazol-2-yl)phenyl)-1-((1-(cyclopropanecarbonyl)azetidin-3-yl)methyl)-4,4-dimethyl-1H-imidazol-5(4H)-one]: the “Human FASN pIC50” value was roughly 5.37.

As to `CC1(C)N=C(c2ccc(-c3cccc4ncccc34)cc2)N(CC2CN(C(=O)C3CC3)C2)C1=O` [Compound 18, 1-((1-(cyclopropanecarbonyl)azetidin-3-yl)methyl)-4,4-dimethyl-2-(4-(quinolin-5-yl)phenyl)-1H-imidazol-5(4H)-one], the “Human FASN pIC50” value is roughly 5.25. Then `CC1(C)N=C(c2ccc(-c3cnc4ccccc4c3)cc2)N(CC2CN(C(=O)C3CC3)C2)C1=O` [Compound 19, 1-((1-(cyclopropanecarbonyl)azetidin-3-yl)methyl)-4,4-dimethyl-2-(4-(quinolin-3-yl)phenyl)-1H-imidazol-5(4H)-one], with 5.38; and `CC1(C)N=C(c2ccc(-c3cccc4cnccc34)cc2F)N(CC2CN(C(=O)C3CC3)C2)C1=O` [Compound 21, 1-((1-(cyclopropanecarbonyl)azetidin-3-yl)methyl)-2-(2-fluoro-4-(isoquinolin-5-yl)phenyl)-4,4-dimethyl-1H-imidazol-5(4H)-one], with 5.87; and `CC1(C)N=C(c2ccc(-c3n[nH]c4ccccc34)cc2)N(C[C@@H]2CCN(C(=O)C3CC3)C2)C1=O` [Compound 35, (R)-2-(4-(1H-indazol-3-yl)phenyl)-1-((1-(cyclopropanecarbonyl)pyrrolidin-3-yl)methyl)-4,4-dimethyl-1H-imidazol-5(4H)-one], with roughly 5.19. Then `CC1(C)N=C(c2ccc(-c3ccc4cncnc4c3)cc2)N(CC2CN(C(=O)C3CC3)C2)C1=O` [Compound 36, 1-((1-(cyclopropanecarbonyl)azetidin-3-yl)methyl)-4,4-dimethyl-2-(4-(quinazolin-7-yl)phenyl)-1H-imidazol-5(4H)-one], with 5.43. To `CC1(C)N=C(c2ccc(-c3ccc4ncccc4c3)cc2F)N(C[C@@H]2CCN(C(=O)C3CC3)C2)C1=O` [Compound 37, (R)-1-((1-(cyclopropanecarbonyl)pyrrolidin-3-yl)methyl)-2-(2-fluoro-4-(quinolin-6-yl)phenyl)-4,4-dimethyl-1H-imidazol-5(4H)-one] belongs 5.86; to `CC1(C)N=C(c2ccc(-c3ccc4ncccc4c3)cc2F)N(CC2CN(C(=O)C3CC3)C2)C1=O` [Compound 38, 1-((1-(cyclopropanecarbonyl)azetidin-3-yl)methyl)-2-(2-fluoro-4-(quinolin-6-yl)phenyl)-4,4-dimethyl-1H-imidazol-5(4H)-one], 5.05; to `CC1(C)N=C(c2ccc(-c3n[nH]c4ccccc34)cc2F)N(CC2CN(C(=O)C3CC3)C2)C1=O` [Compound 58, 1-((1-(cyclopropanecarbonyl)azetidin-3-yl)methyl)-2-(2-fluoro-4-(1H-indazol-3-yl)phenyl)-4,4-dimethyl-1H-imidazol-5(4H)-one], 6.00. In the case of `CC1(C)N=C(c2ccc(-c3c[nH]c4ccccc34)cc2)N(CC2CN(C(=O)C3CC3)C2)C1=O` [Compound 59, 2-(4-(1H-indol-3-yl)phenyl)-1-((1-(cyclopropanecarbonyl)azetidin-3-yl)methyl)-4,4-dimethyl-1H-imidazol-5(4H)-one], the “Human FASN pIC50” value is listed as roughly 5.79. To `CC1(C)N=C(c2ccc(-c3ccc4ncccc4c3)cc2)N(C[C@@H]2CCN(C(=O)C3CC3)C2)C1=O` [Compound 64, (R)-1-((1-(cyclopropanecarbonyl)pyrrolidin-3-yl)methyl)-4,4-dimethyl-2-(4-(quinolin-6-yl)phenyl)-1H-imidazol-5(4H)-one] belongs 5.67. To `CC1(C(=O)N2CC[C@@H](CN3C(=O)C(C)(C)N=C3c3ccc(-c4ccc5cc(F)ccc5c4)cc3F)C2)CC1` [Compound 75, (R)-2-(2-fluoro-4-(6-fluoronaphthalen-2-yl)phenyl)-4,4-dimethyl-1-((1-(1-methylcyclopropanecarbonyl)pyrrolidin-3-yl)methyl)-1H-imidazol-5(4H)-one] belongs 7.26; to `Cn1ncc2cc(-c3ccc(C4=NC(C)(C)C(=O)N4C[C@@H]4CCN(C(=O)C5(O)CC5)C4)c(F)c3)ccc21` [Compound 76, (R)-2-(2-fluoro-4-(1-methyl-1H-indazol-5-yl)phenyl)-1-((1-(1-hydroxycyclopropanecarbonyl)pyrrolidin-3-yl)methyl)-4,4-dimethyl-1H-imidazol-5(4H)-one], 7.07.

Take `CC1(C)N=C(c2ccc(-c3ccc4cc(F)ccc4c3)cc2F)N(C[C@@H]2CCN(C(=O)C3(O)CC3)C2)C1=O` [Compound 88, (R)-2-(2-fluoro-4-(6-fluoronaphthalen-2-yl)phenyl)-1-((1-(1-hydroxycyclopropanecarbonyl)pyrrolidin-3-yl)methyl)-4,4-dimethyl-1H-imidazol-5(4H)-one]: the “Human FASN pIC50” value amounted to 7.69. For the compound `Cn1cnc2cc(-c3ccc(C4=NC(C)(C)C(=O)N4C[C@@H]4CCN(C(=O)C5(O)CC5)C4)c(F)c3)ccc21` [Compound 89, (R)-2-(2-fluoro-4-(1-methyl-1H-benzo[d]imidazol-5-yl)phenyl)-1-((1-(1-hydroxycyclopropanecarbonyl)pyrrolidin-3-yl)methyl)-4,4-dimethyl-1H-imidazol-5(4H)-one], the “Human FASN pIC50” value is listed as 7.22. Then `Cn1cnc2cc(-c3ccc(C4=NC(C)(C)C(=O)N4C[C@@H]4CCN(C(=O)C5(C)CC5)C4)c(F)c3)ccc21` [Compound 90, (R)-2-(2-fluoro-4-(1-methyl-1H-benzo[d]imidazol-5-yl)phenyl)-4,4-dimethyl-1-((1-(1-methylcyclopropanecarbonyl)pyrrolidin-3-yl)methyl)-1H-imidazol-5(4H)-one], with 7.10; and `Cc1cc(-c2ccc3c(c2)ncn3C)ccc1C1=NC(C)(C)C(=O)N1CC1CN(C(=O)C2(O)CC2)C1` [Compound 91, 1-((1-(1-hydroxycyclopropanecarbonyl)azetidin-3-yl)methyl)-4,4-dimethyl-2-(2-methyl-4-(1-methyl-1H-benzo[d]imidazol-5-yl)phenyl)-1H-imidazol-5(4H)-one], with 6.37. To `Cc1cc(-c2ccc3c(c2)ncn3C)ccc1C1=NC(C)(C)C(=O)N1C[C@@H]1CCN(C(=O)C2(O)CC2)C1` [Compound 92, (R)-1-((1-(1-hydroxycyclopropanecarbonyl)pyrrolidin-3-yl)methyl)-4,4-dimethyl-2-(2-methyl-4-(1-methyl-1H-benzo[d]imidazol-5-yl)phenyl)-1H-imidazol-5(4H)-one] belongs 7.04; to `Cn1cnc2cc(-c3ccc(C4=NC(C)(C)C(=O)N4CC4CN(C(=O)C5(C)CC5)C4)c(F)c3)ccc21` [Compound 93, 2-(2-fluoro-4-(1-methyl-1H-benzo[d]imidazol-5-yl)phenyl)-4,4-dimethyl-1-((1-(1-methylcyclopropanecarbonyl)azetidin-3-yl)methyl)-1H-imidazol-5(4H)-one], 7.00.
